The text below walks through data of US20210198277A1, “AMINE-SUBSTITUTED ARYL OR HETEROARYL COMPOUNDS” (Epizyme, Inc., priority 2016, published 2021).

Like-named read-outs stand apart in the source and are kept apart here.

One may read the IC50 as the concentration that gives 50% inhibition.

The target in one assay is T1, human EHMT2 913-1193 (Homo sapiens, UniProt Q96KQ7).
T1 construct: recombinant purified human EHMT2 913-1193, Viva; purchased Viva
T1 sequence (Q96KQ7 913-1193): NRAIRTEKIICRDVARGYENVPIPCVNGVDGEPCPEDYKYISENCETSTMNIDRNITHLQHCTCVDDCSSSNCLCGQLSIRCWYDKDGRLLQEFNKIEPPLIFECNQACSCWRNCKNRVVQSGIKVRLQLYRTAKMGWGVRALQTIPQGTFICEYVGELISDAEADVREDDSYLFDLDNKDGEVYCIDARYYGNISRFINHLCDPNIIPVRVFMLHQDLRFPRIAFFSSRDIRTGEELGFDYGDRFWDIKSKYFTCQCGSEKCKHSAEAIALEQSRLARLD
The experiment in a line: EHMT2 enzyme assay on histone peptide substrate (EHMT2 PEP). The class given is biochemical. The settings on record: read-out: EHMT2 PEP (IC50 μM). In a few lines:
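Compounds (10-point, 3-fold dilutions, top 50 μM final, 2% DMSO) preincubated 30 min with 0.031 nM EHMT2 in 20 mM Bicine pH 7.5, 0.002% Tween 20, 0.005% gelatin, 1 mM TCEP. Biotinylated histone peptide methylated with ^3H-SAM 60 min at room temperature. Quenched with unlabeled SAM; product captured on streptavidin Flashplate, scintillation counted.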

The next assay has as its target T2, EHMT1 (Homo sapiens, UniProt Q9H9B1).
T2 sequence (Q9H9B1 1-1298): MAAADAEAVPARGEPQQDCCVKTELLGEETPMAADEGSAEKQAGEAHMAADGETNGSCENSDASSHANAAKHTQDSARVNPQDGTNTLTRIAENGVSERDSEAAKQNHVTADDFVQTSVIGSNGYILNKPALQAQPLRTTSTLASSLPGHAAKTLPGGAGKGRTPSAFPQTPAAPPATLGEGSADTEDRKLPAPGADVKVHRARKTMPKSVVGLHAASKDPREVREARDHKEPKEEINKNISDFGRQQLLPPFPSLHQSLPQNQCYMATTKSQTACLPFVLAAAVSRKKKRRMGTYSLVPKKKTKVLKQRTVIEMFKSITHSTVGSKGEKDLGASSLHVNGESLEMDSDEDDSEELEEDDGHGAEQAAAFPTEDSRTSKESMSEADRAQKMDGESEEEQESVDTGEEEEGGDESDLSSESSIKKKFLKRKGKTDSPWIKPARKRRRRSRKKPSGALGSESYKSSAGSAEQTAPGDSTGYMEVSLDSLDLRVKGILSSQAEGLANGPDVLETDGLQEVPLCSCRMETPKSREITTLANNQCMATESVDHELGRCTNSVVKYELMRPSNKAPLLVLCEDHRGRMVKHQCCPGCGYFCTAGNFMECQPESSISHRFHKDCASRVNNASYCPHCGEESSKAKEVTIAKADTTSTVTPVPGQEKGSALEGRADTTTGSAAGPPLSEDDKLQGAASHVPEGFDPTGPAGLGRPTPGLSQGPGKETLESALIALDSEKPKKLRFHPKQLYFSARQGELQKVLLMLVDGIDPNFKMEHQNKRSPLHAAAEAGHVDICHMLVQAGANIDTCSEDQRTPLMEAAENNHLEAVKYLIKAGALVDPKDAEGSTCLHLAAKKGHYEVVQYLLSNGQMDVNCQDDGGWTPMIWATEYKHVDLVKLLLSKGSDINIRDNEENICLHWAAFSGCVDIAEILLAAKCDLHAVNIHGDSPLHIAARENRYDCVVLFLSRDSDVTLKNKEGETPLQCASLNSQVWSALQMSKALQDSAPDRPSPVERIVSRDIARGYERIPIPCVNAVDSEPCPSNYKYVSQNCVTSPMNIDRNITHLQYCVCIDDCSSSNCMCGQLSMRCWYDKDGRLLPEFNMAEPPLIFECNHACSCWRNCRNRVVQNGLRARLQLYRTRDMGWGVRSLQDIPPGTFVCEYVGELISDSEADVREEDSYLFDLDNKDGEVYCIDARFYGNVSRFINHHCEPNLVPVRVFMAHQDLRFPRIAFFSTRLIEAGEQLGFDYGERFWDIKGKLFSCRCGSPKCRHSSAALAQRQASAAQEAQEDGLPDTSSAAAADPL
The experiment in a line: EHMT1 enzyme assay on peptide substrate (EHMT1 PEP). The settings on record: read-out: EHMT1 PEP (IC50 μM). The class given is biochemical.

For `CNc1ccnc(Nc2ccc(OC)c(OCC3CCCN(C)C3)c2)n1` (stereo not shown) [Compound 412, N^2-(4-methoxy-3-((1-methylpiperidin-3-yl)methoxy)phenyl)-N^4-methylpyrimidine-2,4-diamine], the IC50 at human EHMT2 913-1193 (Table III) and at EHMT1 (Table III) was 0.1 to 1 µM in each case.
As for `CNc1ncc(C(F)(F)F)c(Nc2ccc(OC)c(OCCCN3CCCC3)c2)n1` [Compound 359], the IC50 at human EHMT2 913-1193 (Table III) and at EHMT1 (Table III) was above 10 µM in each case.
`CNc1cc(C)nc(Nc2ccc(OC)c(COC3CCN(C)C3)c2)n1` (stereo not shown) [Compound 421, N^2-(4-methoxy-3-(((1-methylpyrrolidin-3-yl)oxy)methyl)phenyl)-N^4,6-dimethylpyrimidine-2,4-diamine]: the IC50 on human EHMT2 913-1193 (Table III) and at EHMT1 (Table III) was 0.1 to 1 µM throughout.
For the molecule `COc1ccc(Nc2nccc(NCC(F)(F)F)n2)cc1OCCCN1CCCC1` [Compound 392], the IC50 at human EHMT2 913-1193 (Table III) and at EHMT1 (Table III) was 0.1 to 1 µM in each case.
Take `COc1ccc(Nc2nccc(N(C)Cc3ccncc3)n2)cc1OCCCN1CCCC1` [Compound 56]: the IC50 at human EHMT2 913-1193 (Table II) and on EHMT1 (Table II) was 1 to 10 µM throughout.
`COc1ccc(Nc2nccc(NCC3CCOCC3)n2)cc1OCCCN1CCCC1` [Compound 3, N^2-(4-methoxy-3-(3-(pyrrolidin-1-yl)propoxy)phenyl)-N^4-((tetrahydro-2H-pyran-4-yl)methyl)pyrimidine-2,4-diamine]: the IC50 on human EHMT2 913-1193 (Table II) and at EHMT1 (Table II) was below 0.1 µM throughout.
For the molecule `COc1ccc(Nc2cccc3[nH]ccc23)cc1OCCCN1CCCC1` [Compound 265, N-(4-methoxy-3-(3-(pyrrolidin-1-yl)propoxy)phenyl)-1H-indol-4-amine], the IC50 on human EHMT2 913-1193 (Table III) and at EHMT1 (Table III) was above 10 µM in each case.
With `CNc1cc(C(F)(F)F)nc(Nc2ccc(OC)c(OCCCN3CCCC3)c2)n1` [Compound 362], the IC50 on human EHMT2 913-1193 (Table III) and at EHMT1 (Table III) was above 10 µM throughout.
